Source: US6596882B2, “Recovery and purification of 3,4-epoxy-1-butene using water-miscible solvents” (Eastman Chemical Company, priority 2001, dated 2003)

Legend:
[1] = Relative distribution coefficient of epoxybutene into the aqueous phase in the presence of a water-miscible solvent; type: physicochemical; conditions: one part solvent added to two parts of 2:1 water-epoxybutene mixture, room temperature, aqueous phase by GC; relative to water alone (=1.00)
Description: This example compares the absorption affinity of various water-miscible solvents for epoxybutene in the presence of water, as occurs in the absorbent zone of the present invention. A standard mixture of 2 parts by weight water and one part by weight epoxybutene was prepared. A portion of the standard solution was placed in a separatory funnel, shaken, allowed to settle, then separated into two liquid phases at room temperature. The water phase was analyzed by gas chromatography to determine the solubility of epoxybutene in pure water. Next, for each solvent specified in Table I, one part by weight water-miscible solvent was added to two parts of the standard water-epoxybutene solution. Each water-solvent-epoxybutene solution was placed in a separatory funnel, shaken, allowed to settle, then separated into two liquid phases at room temperature. The aqueous phase from the decantation was analyzed by gas chromatography to determine the epoxybutene solubility in that phase. From these compositions, distribution coefficients were calculated as: [formula]
The relative affinity of solvents for absorption of epoxybutene was determined from a relative molar distribution term, calculated as: [formula]

[2] = 25° C.; cited from earlier work
[3] = Rate of epoxybutene hydrolysis in phosphate buffers at different pH, followed by UV spectrophotometry; type: physicochemical
Description: The rate of epoxybutene hydrolysis was determined at several different pH levels according to the following procedure: A stirred, thermostatted cell was filled with a solution of buffered water and allowed to equilibrate at a temperature of 29° C. Phosphate buffers at a pH of 3, 5, 7, 8, 9, and 11 were prepared by adding either phosphoric acid or sodium hydroxide to a 0.05 M solution of disodium phosphate. For each experiment, the buffer solution was charged to a stirred, thermostatted equilibrium cell equipped with an UV spectrophometer probe. Once the solution had equilibrated at 29° C. and a background spectra had been collected, a 10 microliter standard sample of epoxybutene in acetronitrile (warmed to 29° C.) was injected into the cell to give an initial concentration of 0.01M epoxybutene. The disappearance of epoxybutene and formation of 3-butene-1,2-diol over time was followed by UV spectrophotometry.

CC#N [Acetonitrile]
Relative Distribution [1]: 1.89

CCCCOCCO [2-Butoxyethanol]
Relative Distribution [1]: 1.29

COCCOCCO [2-(2-Methoxyethoxy)ethanol]
Relative Distribution [1]: 1.83

c1ccc2ncccc2c1 [Quinoline]
Relative Distribution [1]: 1.03

C=CC(O)CO (stereo not shown) [3-Buten-1,2-Diol]
Relative Distribution [1]: 1.39

CN(C)C=O [Dimethylformamide]
Relative Distribution [1]: 2.44

OCCO [Ethylene Glycol]
Relative Distribution [1]: 1.14

C[S+](C)[O-] [Dimethylsulfoxide]
Relative Distribution [1]: 1.40

COCCOCCOCCOC [Triglyme]
Relative Distribution [1]: 1.54

CCCCOCCOCCO [2-(2-Butoxyethoxy)ethanol]
Relative Distribution [1]: 4.30

C=CC1CO1 (stereo not shown) [Epoxybutene, 3,4-epoxy-1-butene]
solubility of epoxybutene in water [2]: 5 to 6 weight percent | Relative Rate of Epoxybutene Hydrolysis ([3]; pH 3, phosphate buffer, 29° C., relative to pH 7): 555.5 | Relative Rate of Epoxybutene Hydrolysis ([3]; pH 3, phosphate buffer, 29° C., relative to pH 7, listed as epoxybutene): over 500 | Relative Rate of Epoxybutene Hydrolysis ([3]; pH 5, phosphate buffer, 29° C., relative to pH 7): 5.6 | Relative Rate of Epoxybutene Hydrolysis ([3]; pH 7, phosphate buffer, 29° C. (reference)): 1.0 | Relative Rate of Epoxybutene Hydrolysis ([3]; pH 8, phosphate buffer, 29° C., relative to pH 7): 0.7 | Relative Rate of Epoxybutene Hydrolysis ([3]; pH 8, phosphate buffer, 29° C., relative to pH 7, listed as epoxybutene): about 0.7 | Relative Rate of Epoxybutene Hydrolysis ([3]; pH 9, phosphate buffer, 29° C., relative to pH 7): 3.2 | Relative Rate of Epoxybutene Hydrolysis ([3]; pH 11, phosphate buffer, 29° C., relative to pH 7): 17.6 | Relative Rate of Epoxybutene Hydrolysis ([3]; pH 11, phosphate buffer, 29° C., relative to pH 7, listed as epoxybutene): over 17

CC(O)CO (stereo not shown) [Propylene Glycol]
Relative Distribution [1]: 1.90

COCC(C)O (stereo not shown) [Propylene Glycol Monomethyl Ether]
Relative Distribution [1]: 2.02

CCCOCCO [2-Propoxyethanol]
Relative Distribution [1]: 1.49

CN1CCCC1=O [1-Methyl-2-Pyrrolidinone]
Relative Distribution [1]: 2.78

COC(C)COC(C)=O (stereo not shown) [2-Methoxypropyl Acetate]
Relative Distribution [1]: 1.05
